From the supplement of paper PMC10307832 come the findings set out here.

Assay in all cases: relative viability (nuclei count vs DMSO), 5 days (fraction); higher = more cells survive
Compound in test [1]: COc1cc2nc(N3CCCN(C)CC3)nc(NC3CCN(Cc4ccccc4)CC3)c2cc1OC + N=C(N)NC(=N)NCCc1ccccc1 [Phenformin] (partner 250 µM)
Summed up: (§1)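 A single step with final 0.05% Triton X-100, 1% formaldehyde and 1 ug/ml Hoechst fixed the cells and stained nuclei 5 days after treatment. Lung cancer cell lines in 1536-well plates had been treated by pin tool the day after seeding with one drug alone or a fixed anchor-drug dose plus five library-drug doses (not always all listed) in √10 steps, and nuclei were counted on 4× images. Relative viability is the ratio of nuclei in treated wells to nuclei in vehicle wells, taken as the median of duplicate plates.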

Compound in test [2]: Cc1cc([C@@H](C)Nc2ccccc2C(=O)O)c2nc(N3CCOCC3)cc(=O)n2c1 [AZD6482] + CS(=O)(=O)N1CCN(Cc2cc3nc(-c4cccc5[nH]ncc45)nc(N4CCOCC4)c3s2)CC1 [Pictilisib] (partner 1 µM)
Summed up: as §1

Compound in test [3]: Cc1cc([C@@H](C)Nc2ccccc2C(=O)O)c2nc(N3CCOCC3)cc(=O)n2c1 [AZD6482] + O=C(CCCCCCC(=O)Nc1ccccc1)NO [Vorinostat] (partner 1 µM)
In outline: as §1

Compound in test [4]: Cc1cc([C@@H](C)Nc2ccccc2C(=O)O)c2nc(N3CCOCC3)cc(=O)n2c1 [AZD6482] + CC(=O)Nc1cccc(-n2c(=O)n(C3CC3)c(=O)c3c(Nc4ccc(I)cc4F)n(C)c(=O)c(C)c32)c1 [Trametinib] (partner 0.02 µM)
Summed up: as §1

With 201T, the relative viability came out at 0.464 in test [1] (first compound 0.2 µM); 0.414 in test [1] (first compound 0.6325 µM); 0.462 in test [1] (first compound 2 µM); 0.442 in test [1] (first compound 6.325 µM); 0.612 in test [2] (first compound 0.08 µM); 0.672 in test [2] (first compound 0.253 µM). The relative viability in test [2] (first compound 0.8 µM) amounted to 0.66; in test [2] (first compound 2.53 µM) it was 0.506; in test [2] (first compound 8 µM) it was 0.619; in test [3] (first compound 0.08 µM) it was 0.965; in test [3] (first compound 0.253 µM) it was 0.938; in test [3] (first compound 0.8 µM) it was 0.983. For the same cell line, the relative viability in test [3] (first compound 2.53 µM) is 0.764; in test [3] (first compound 8 µM), 0.862; in test [4] (first compound 0.08 µM) it was 0.694; in test [4] (first compound 0.253 µM), 0.698; in test [4] (first compound 0.8 µM), 0.704; in test [4] (first compound 2.53 µM), 0.653. For the same cell line, in test [4] (first compound 8 µM), the relative viability is 0.708.
In the case of A549, the relative viability in test [1] (first compound 0.2 µM) was found to be 0.185; in test [1] (first compound 0.6325 µM) it was 0.165; in test [1] (first compound 2 µM) it was 0.195; in test [1] (first compound 6.325 µM), 0.146; in test [2] (first compound 0.08 µM), 0.522; in test [2] (first compound 0.253 µM), 0.472. Also, the relative viability in test [2] (first compound 0.8 µM) is 0.523; in test [2] (first compound 2.53 µM), 0.264; in test [2] (first compound 8 µM), 0.386.
With A-427, the relative viability in test [1] (first compound 0.2 µM) came out at 0.337; in test [1] (first compound 0.6325 µM), 0.422; in test [1] (first compound 2 µM), 0.305; in test [1] (first compound 6.325 µM) it was 0.247; in test [2] (first compound 0.08 µM), 0.655; in test [2] (first compound 0.253 µM) it was 0.697. The relative viability in test [2] (first compound 0.8 µM) was determined as 0.735; in test [2] (first compound 2.53 µM) it was 0.601; in test [2] (first compound 8 µM) it was 0.682; in test [3] (first compound 0.08 µM), 0.806; in test [3] (first compound 0.253 µM), 0.843; in test [3] (first compound 0.8 µM), 0.87. The relative viability is 0.706 in test [3] (first compound 2.53 µM); 0.826 in test [3] (first compound 8 µM); 0.628 in test [4] (first compound 0.08 µM); 0.783 in test [4] (first compound 0.253 µM); 0.691 in test [4] (first compound 0.8 µM); 0.548 in test [4] (first compound 2.53 µM). The relative viability in test [4] (first compound 8 µM) stood at 0.612.
ABC-1: the relative viability is 0.223 in test [1] (first compound 0.2 µM); 0.2 in test [1] (first compound 0.6325 µM); 0.26 in test [1] (first compound 2 µM); 0.319 in test [1] (first compound 6.325 µM); 0.789 in test [2] (first compound 0.08 µM); 0.623 in test [2] (first compound 0.253 µM). Further, the relative viability in test [2] (first compound 0.8 µM) worked out at 0.773; in test [2] (first compound 2.53 µM) it was 0.686; in test [2] (first compound 8 µM), 0.736; in test [3] (first compound 0.08 µM), 1.11; in test [3] (first compound 0.253 µM) it was 0.877; in test [3] (first compound 0.8 µM), 1.01. Also, the relative viability in test [3] (first compound 2.53 µM) stood at 0.83; in test [3] (first compound 8 µM), 0.986.
Consider BEN, for which the relative viability in test [1] (first compound 0.2 µM) was 0.252; in test [1] (first compound 0.6325 µM), 0.251; in test [1] (first compound 2 µM), 0.229; in test [1] (first compound 6.325 µM) it was 0.276; in test [2] (first compound 0.08 µM), 0.607; in test [2] (first compound 0.253 µM), 0.506. For the same cell line, the relative viability is 0.655 in test [2] (first compound 0.8 µM); 0.434 in test [2] (first compound 2.53 µM); 0.557 in test [2] (first compound 8 µM); 0.541 in test [3] (first compound 0.08 µM); 0.546 in test [3] (first compound 0.253 µM); 0.594 in test [3] (first compound 0.8 µM). Besides, the relative viability was 0.467 in test [3] (first compound 2.53 µM); 0.578 in test [3] (first compound 8 µM); 0.898 in test [4] (first compound 0.08 µM); 0.947 in test [4] (first compound 0.253 µM); 1.02 in test [4] (first compound 0.8 µM); 0.866 in test [4] (first compound 2.53 µM). In test [4] (first compound 8 µM), the relative viability worked out at 0.817.
CAL-12T: the relative viability in test [1] (first compound 0.2 µM) worked out at 0.503; in test [1] (first compound 0.6325 µM), 0.606; in test [1] (first compound 2 µM), 0.686; in test [1] (first compound 6.325 µM), 0.532; in test [2] (first compound 0.08 µM), 0.395; in test [2] (first compound 0.8 µM) it was 0.571. Besides, the relative viability was found to be 0.291 in test [2] (first compound 2.53 µM); 0.432 in test [2] (first compound 8 µM); 0.715 in test [3] (first compound 0.08 µM); 0.666 in test [3] (first compound 0.253 µM); 0.737 in test [3] (first compound 0.8 µM); 0.548 in test [3] (first compound 2.53 µM). In addition, the relative viability in test [3] (first compound 8 µM) worked out at 0.556; in test [4] (first compound 0.08 µM), 0.308; in test [4] (first compound 0.253 µM) it was 0.276; in test [4] (first compound 0.8 µM), 0.234; in test [4] (first compound 2.53 µM) it was 0.185; in test [4] (first compound 8 µM) it was 0.302.
As to COR-L23, the relative viability stood at 0.456 in test [1] (first compound 0.2 µM); 0.446 in test [1] (first compound 0.6325 µM); 0.494 in test [1] (first compound 2 µM); 0.398 in test [1] (first compound 6.325 µM); 0.424 in test [2] (first compound 0.08 µM); 0.642 in test [2] (first compound 0.253 µM). The relative viability in test [2] (first compound 0.8 µM) was found to be 0.765; in test [2] (first compound 2.53 µM), 0.534; in test [2] (first compound 8 µM), 0.748; in test [3] (first compound 0.08 µM), 0.269; in test [3] (first compound 0.253 µM) it was 0.512; in test [3] (first compound 0.8 µM), 0.505. The relative viability in test [3] (first compound 2.53 µM) came to 0.28; in test [3] (first compound 8 µM), 0.442; in test [4] (first compound 0.08 µM), 0.553; in test [4] (first compound 0.253 µM), 0.598; in test [4] (first compound 0.8 µM), 0.652; in test [4] (first compound 2.53 µM) it was 0.403. Besides, the relative viability in test [4] (first compound 8 µM) was found to be 0.521.
On to COR-L 105, for which the relative viability in test [1] (first compound 0.2 µM) came out at 0.461; in test [1] (first compound 0.6325 µM) it was 0.514; in test [1] (first compound 2 µM), 0.472; in test [1] (first compound 6.325 µM), 0.343; in test [2] (first compound 0.08 µM), 0.362; in test [2] (first compound 0.253 µM), 0.388. Moreover, the relative viability in test [2] (first compound 0.8 µM) came to 0.428; in test [2] (first compound 2.53 µM) it was 0.265; in test [2] (first compound 8 µM), 0.309; in test [3] (first compound 0.08 µM) it was 0.75; in test [3] (first compound 0.253 µM) it was 0.663; in test [3] (first compound 0.8 µM), 0.907. The relative viability is 0.649 in test [3] (first compound 2.53 µM); 0.648 in test [3] (first compound 8 µM); 0.378 in test [4] (first compound 0.08 µM); 0.451 in test [4] (first compound 0.253 µM); 0.46 in test [4] (first compound 0.8 µM); 0.383 in test [4] (first compound 2.53 µM). The relative viability in test [4] (first compound 8 µM) was determined as 0.423.
